Experimental data taken from patent publication US6436920B1, “Wrinkling modifiers” (Kao Corporation, priority 1996, dated 2002).

System: Wrinkles formed on hairless mice by exposure to UVB
Test: Effect of the guanidine derivatives on wrinkles formed on hairless mice by exposure to UVB
Format: in vivo, Hairless mice (HR/ICR)
Details: for Area percent by image analysis (%): proportion of shadows of wrinkles on back skin replicas (14 mm, illuminated at 30 degrees), 4% in aqueous ethanol, 100 μl 5 times a week over 6 weeks, control 10.6; for Wrinkle index: visual score 1 (wrinkles completely removed or smoothed) to 4 (observed to a great extent), 4% in aqueous ethanol (50/50 vol. %), 100 μl applied 5 times a week over 6 weeks, groups of 8 mice, control 3.73
Procedure: Effect of the Guanidine Derivatives (1) to (16) on Wrinkles Formed on Hairless Mice by Exposure to UVB
(1) Hairless mice (HR/ICR, aged 6 weeks at the beginning of the experiment) were,exposed to UVB 3 times a week by using 6 Toshiba healthy lamps, 20SE. The amount of energy was measured by means of a UV-Radiometer, UVR-305/365D manufactured by TOKYO OPTICAL K.K. The dose upon one exposure was determined to be 1 MED or less, i.e., 65 mJ in an amount of energy of 0.28 mW/cm^2. The exposure was effected for 20 weeks. After confirming that the hairless mice had got wrinkles at their backs, they were divided into groups each consisting of 8 mice. Aqueous ethanol (water/ethanol=50/50 vol. %) solutions separately containing Compounds (1) to (16) at a concentration of 4% were applied 5 times a week to their corresponding groups of mice over 6 weeks in a dose of 100 μl. As a control, aqueous ethanol (water/ethanol=50/50 vol. %) was applied in a dose of 100 μl like the samples. After completion of the application, the degree of wrinkles was visually observed to evaluate the samples in accordance with the following standard (wrinkle index).
1: Wrinkles were completely removed or smoothed;
2: Wrinkles were scarcely observed;
3: Wrinkles were somewhat observed;
(2) In order to further analyze the particulars of wrinkles, skin replicas of the size of 14 mm in diameter were gathered from a portion of the back in each of the mice using a Hydrophilic Exaflex hydrophilic vinylsilicone impression material. Each of these replicas was held horizontally and illuminated at an angle of 30 degrees from the horizontal direction, thereby finding a proportion of shadows of the wrinkles as an area percent by means of an image analyzer.

SMILES | Area percent by image analysis (%) | Wrinkle index
N=C(N)N1CCC(O)C1 (centres unmarked) [Compound (12)] | 3.62% | 2.50
N=C(N)N1CCN(C(=N)N)CC1 [Compound (7)] | 4.28% | 2.75
N=C(N)N1CCN(C(=N)N)CC1 [Compound (11)] | 4.02% | 2.75
N=C(N)N1CCCCC1 [Compound (15)] | 4.48% | 2.50
N=C(N)N1CCCC1CO (centres unmarked) [Compound (4)] | 5.37% | 2.50
N=C(N)N1CCCC1CO (centres unmarked) [Compound (13)] | 4.30% | 2.375
N=C(N)N1CCOCC1 [Compound (10)] | 3.41% | 2.50
N=C(N)N1CCCC1 [Compound (14)] | 3.62% | 2.125
N=C(N)N1CCC(O)C1 (centres unmarked) [Compound (8)] | 3.26% | 2.25
N=C(N)N1CCCC1C(=O)O (centres unmarked) [Compound (2)] | 2.48% | 2.125
N=C(N)N1CCCC1CO (centres unmarked) [Compound (9)] | 4.00% | 2.375
N=C(N)N1CC(O)CC1C(=O)O (centres unmarked) [Compound (1)] | 3.21% | 2.0
N=C(N)N1CCC(O)C1 (centres unmarked) [Compound (3)] | 4.32% | 2.50
N=C(N)N1CCC(CC(=O)O)CC1 [Compound (16)] | 4.25% | 2.25
N=C(N)N1CCC(C(=O)O)CC1 [Compound (6)] | 3.51% | 2.75
N=C(N)N1CCOCC1 [Compound (5)] | 4.76% | 2.75
